The values below come from PubChem BioAssay (NCI).

Among the test systems are HCC-2998 colon; HT29 colon; LOX IMVI melanoma; M14 melanoma; MDA-N; NCI-H460 lung; NCI/ADR-RES ovarian; RPMI-8226 leukemia; RXF 393 renal; SK-MEL-28 melanoma.
Holding throughout (test): growth of human tumour cells (NCI), 48 h

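Test compounds were applied to cells in 96-well plates for 48 hours at 5 doses. TGI: total growth inhibition.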 Some results are limits rather than exact numbers.

Take `CNc1ccc2c(c1)[C@@]1(C)c3ccccc3[C@@H](C2)N1C`: the TGI in the assay on HCC-2998 colon turned out to be 44.5 µM; in the assay on HT29 colon, 64.8 µM; in the assay with LOX IMVI melanoma, 36.6 µM; with M14 melanoma, 49.6 µM; with MDA-N, 74.7 µM; in the assay on NCI-H460 lung, 39.9 µM. The TGI came out at 64.2 µM in the assay with NCI/ADR-RES ovarian, 38.9 µM in the assay with RPMI-8226 leukemia and 50.8 µM in the assay on RXF 393 renal.

`CC1=CC(=O)c2ccccc2C1=O`: the TGI in the assay with HCC-2998 colon was 30.7 µM; with HT29 colon it was 34.1 µM; in the assay on LOX IMVI melanoma, 5.72 µM; in the assay on M14 melanoma, 15.8 µM; with MDA-N, 2.37 µM; in the assay on NCI-H460 lung, 24.5 µM. Also, the TGI in the assay with NCI/ADR-RES ovarian was determined as 30.2 µM; in the assay with RPMI-8226 leukemia, 5.39 µM; with RXF 393 renal it was 26.9 µM; in the assay on SK-MEL-28 melanoma it was 16.6 µM.

For `C[C@H](CCC(=O)O)[C@H]1CC[C@@]2(C)[C@@H]3C(=O)C[C@H]4C(C)(C)[C@@H](O)CC[C@]4(C)[C@H]3C(=O)C[C@]12C`, the TGI with HCC-2998 colon, in the assay with HT29 colon, in the assay on LOX IMVI melanoma, in the assay with M14 melanoma, with MDA-N and with NCI-H460 lung was greater than 100 µM each time. Further, the TGI with NCI/ADR-RES ovarian, in the assay with RPMI-8226 leukemia, in the assay on RXF 393 renal and in the assay on SK-MEL-28 melanoma was greater than 100 µM each time.

`CC1=NN(c2cccc(Cl)c2)C2(SCC(=O)N2c2nc3ccccc3s2)/C1=C\c1cccs1` (stereo not drawn): the TGI in the assay on HCC-2998 colon came out at 37.1 µM; in the assay on HT29 colon, 46.6 µM; in the assay on LOX IMVI melanoma it was 66.5 µM; in the assay on M14 melanoma, 89.3 µM; with MDA-N, 52.4 µM; in the assay with NCI-H460 lung it was 69.1 µM. Also, the TGI with NCI/ADR-RES ovarian was 48.9 µM; in the assay with RPMI-8226 leukemia it was 38.7 µM; in the assay with RXF 393 renal, 51.6 µM; with SK-MEL-28 melanoma, 85.6 µM.

As for `C(=N\NC1=NCCN1)/c1ccc(-c2cn3cc(/C=N/NC4=NCCN4)ccc3n2)cc1`, the TGI is greater than 100 µM in the assay on HCC-2998 colon; greater than 67.7 µM with HT29 colon; greater than 52.5 µM in the assay on LOX IMVI melanoma; greater than 62.6 µM in the assay with M14 melanoma; greater than 100 µM in the assay with MDA-N; greater than 45.8 µM with NCI-H460 lung. Moreover, the TGI with NCI/ADR-RES ovarian, in the assay on RPMI-8226 leukemia and in the assay on RXF 393 renal was greater than 100 µM in each case.

As for `CCCNC(=O)CCC(C)C1CCC2C3C(C[C@H](OC(C)=O)[C@]12C)[C@@]1(C)CCC2(C[C@H]1C[C@H]3OC(C)=O)OOC1(CC[C@]3(C)C4C[C@H](OC(C)=O)[C@]5(C)C(C(C)CCC(=O)NCCC)CCC5C4[C@H](OC(C)=O)C[C@@H]3C1)OO2` (stereo partly drawn), the TGI in the assay on HCC-2998 colon, with HT29 colon, in the assay with LOX IMVI melanoma, with M14 melanoma, in the assay with MDA-N and in the assay with NCI-H460 lung was greater than 100 µM in each case. In addition, the TGI is greater than 100 µM in the assay on NCI/ADR-RES ovarian, greater than 100 µM with RPMI-8226 leukemia, greater than 87.1 µM in the assay with RXF 393 renal and greater than 100 µM in the assay with SK-MEL-28 melanoma.

In the case of `Cc1ccccc1C(=O)N/N=C/c1ccc(Sc2nccn2C)c([N+](=O)[O-])c1`, the TGI in the assay on HCC-2998 colon, with HT29 colon, with LOX IMVI melanoma, in the assay with M14 melanoma, in the assay on MDA-N and in the assay on NCI-H460 lung was greater than 100 µM in each case. The TGI with NCI/ADR-RES ovarian, in the assay on RPMI-8226 leukemia, in the assay with RXF 393 renal and with SK-MEL-28 melanoma was greater than 100 µM in each case.

In the case of `O=C(O)C1C2CCC(O2)C1C(=O)Nc1cccc2cccnc12` (stereo not drawn), the TGI in the assay on HCC-2998 colon, in the assay with HT29 colon, in the assay on LOX IMVI melanoma, with M14 melanoma, in the assay with MDA-N and in the assay on NCI-H460 lung was greater than 100 µM throughout. For the same molecule, the TGI in the assay with NCI/ADR-RES ovarian, with RPMI-8226 leukemia, in the assay with RXF 393 renal and in the assay with SK-MEL-28 melanoma was greater than 100 µM throughout.

Take `Cc1nn(-c2ccccc2)c(C)c1/C=N/N=C1\SCC(=O)N1c1ccccc1`: the TGI in the assay on HCC-2998 colon was 52.8 µM; with HT29 colon it was 73.9 µM; in the assay with LOX IMVI melanoma, 48.1 µM; with M14 melanoma it was 60.7 µM; with MDA-N, 59.6 µM; in the assay on NCI-H460 lung, 60.2 µM. The TGI in the assay with NCI/ADR-RES ovarian came out at 54.4 µM; in the assay with RPMI-8226 leukemia it was 35.3 µM; in the assay on RXF 393 renal it was 42.7 µM; with SK-MEL-28 melanoma it was 67.9 µM.

For the molecule `CCOC(=O)C1=NN(c2ccc(C)cc2)C2=CC(C)=NN(C)C(=S)N21`, the TGI in the assay on HCC-2998 colon, in the assay on HT29 colon, in the assay with LOX IMVI melanoma, in the assay on M14 melanoma, with MDA-N and in the assay with NCI-H460 lung was greater than 100 µM each time. Moreover, the TGI is greater than 100 µM in the assay on NCI/ADR-RES ovarian, greater than 100 µM with RPMI-8226 leukemia, 30.1 µM in the assay with RXF 393 renal and greater than 100 µM with SK-MEL-28 melanoma.

On to `O=C(C[n+]1ccc2ccccc2c1)c1ccc2ccc3ccccc3c2c1`, for which the TGI was 3.37 µM in the assay with HCC-2998 colon; 12.2 µM in the assay with HT29 colon; 6.57 µM in the assay with LOX IMVI melanoma; 10.6 µM in the assay on M14 melanoma; 10.8 µM in the assay with MDA-N; 5.85 µM in the assay with NCI-H460 lung. For the same molecule, the TGI turned out to be 32.7 µM with NCI/ADR-RES ovarian, 0.646 µM in the assay on RPMI-8226 leukemia, 16.3 µM with RXF 393 renal and 9.08 µM in the assay with SK-MEL-28 melanoma.

For `NCCCCc1cc(O)c2c(c1O)C(=O)c1ccccc1C2=O`, the TGI in the assay with HCC-2998 colon is 28 µM; in the assay on HT29 colon it was 16.7 µM; in the assay on LOX IMVI melanoma, 21.2 µM; in the assay with M14 melanoma it was 33.6 µM; with MDA-N it was 28.6 µM; with NCI-H460 lung, 26.6 µM. Also, the TGI in the assay on NCI/ADR-RES ovarian was determined as 30.5 µM; with RPMI-8226 leukemia it was 29.2 µM; in the assay with RXF 393 renal, 27.9 µM; in the assay with SK-MEL-28 melanoma, 33.6 µM.

On to `COc1cccc2c1Cc1cc(-c3ccccc3)[n+](C)n1-2`, for which the TGI in the assay with HCC-2998 colon was greater than 100 µM; with HT29 colon it was 32 µM; in the assay on LOX IMVI melanoma it was 29.3 µM; with M14 melanoma, 24.9 µM; with MDA-N it was 26 µM; in the assay with NCI-H460 lung, 40.4 µM. Also, the TGI in the assay on NCI/ADR-RES ovarian was greater than 100 µM; in the assay with RPMI-8226 leukemia, greater than 100 µM; with RXF 393 renal it was 73.6 µM; with SK-MEL-28 melanoma, greater than 100 µM.
